According to US10851073B2, “Protein tyrosine phosphatase inhibitors and methods of use thereof” (Calico Life Sciences LLC, priority 2019, dated 2020):

The molecules below were run on B16F10 mouse melanoma cells (assay: B16F10 IFNγ-induced cellular growth inhibition assay). Settings: B16-F10, with 0.5 ng/mL IFNγ, read-out: B16F10 GI IC50.
Assay type: cell-based
Protocol: Example 229: B16F10 IFNγ-Induced Cellular Growth Inhibition Assay B16F10 mouse melanoma cells (ATCC Cat^# CRL-6475, Manassas, Va.) were seeded at a density of 500 cells per well in a 384-well clear bottom plate (Corning Cat^#3765, Corning, N.Y.) in 25 μL total volume of DMEM+10% FBS (Sigma Cat^# D6429 and Sigma Cat^# F4135, St. Louis, Mo.). Cells were allowed to adhere overnight at 37° C.+5% CO2. On the following day, 12.5 μL of mouse IFNγ (RD systems Cat^#485-MI/CF, Minneapolis, Minn.) was added to half of the plate (columns 13-24) at a concentration of 2 ng/mL for a final assay concentration of 0.5 ng/mL of IFNγ. Media only (12.5 μL of DMEM+10% FBS) was added to the remainder of the plate (columns 1-12). Next, compounds resuspended in DMSO (Sigma Cat^# D2650) at 100 mM were diluted in semi-log dilutions in DMSO ranging from 100 mM to 0.001 mM and DMSO only controls were included. The compound/DMSO dilutions were further diluted 1:250 in DMEM+10% FBS, and 12.5 μL of these dilutions were added in triplicates to cells of both treatment arms (with and without IFNγ). Final compound concentrations ranged from 100 μM to 0.001 μM with a final DMSO concentration of 0.1%. Compounds were only dosed in the inner 240 wells, avoiding the outer 2-well perimeter of the plate to minim/ze edge effects. Finally, the plate was loaded into an IncuCyte® S3 Live Cell Analysis System (Essen Bioscience-Sartorius, Ann Arbor, Mich.) maintained in a 37° C.+5% CO2 incubator, allowed to equilibrate for 2 hours, and imaged every 6 hours for 5 days. Confluence over time for compound dilutions in the presence and absence of IFNγ was measured. Growth inhibition values were obtained when the “DMSO/no IFNγ” control reached confluence >95%. At these time points, for each compound the percent growth inhibition at every compound dose level was calculated relative to the “DMSO/with IFNγ” control and used to determine the IC50.

IC50 [µM] | Compound
1 to 10 | Cc1c(CCN2CCc3cc(O)c(N4CC(=O)NS4(=O)=O)c(F)c3C2)cnn1C [Compound 257, 5-{2-[2-(1,5-dimethyl-1H-pyrazol-4-yl)ethyl]-8-fluoro-6-hydroxy-1,2,3,4-tetrahydroisoquinolin-7-yl}-1λ^6,2,5-thiadiazolidine-1,1,3-trione]
1 to 10 | O=C1CN(c2c(O)cc3c(c2F)CN(CCC2(C(F)(F)F)CC2)CC3)S(=O)(=O)N1 [Compound 243, 5-(8-fluoro-6-hydroxy-2-{2-[1-(trifluoromethyl)cyclopropyl]ethyl}-1,2,3,4-tetrahydroisoquinolin-7-yl)-1λ^6,2,5-thiadiazolidine-1,1,3-trione]
10 to 100 | O=C1CN(c2c(O)cc3c(c2F)CN(Cc2ccccn2)CC3)S(=O)(=O)N1 [Compound 184, 5-{8-fluoro-6-hydroxy-2-[(pyridin-2-yl)methyl]-1,2,3,4-tetrahydroisoquinolin-7-yl}-1λ^6,2,5-thiadiazolidine-1,1,3-trione]
10 to 100 | O=C1CN(c2c(O)cc3c(c2F)CCCO3)S(=O)(=O)N1 [Compound 111, 5-(5-fluoro-7-hydroxy-3,4-dihydro-2H-1-benzopyran-6-yl)-1λ^6,2,5-thiadiazolidine-1,1,3-trione]
1 to 10 | O=C1CN(c2c(O)cc3c(c2F)CN(CCCN2CCOCC2)CC3)S(=O)(=O)N1 [Compound 229, 5-{8-fluoro-6-hydroxy-2-[3-(morpholin-4-yl)propyl]-1,2,3,4-tetrahydroisoquinolin-7-yl}-1λ^6,2,5-thiadiazolidine-1,1,3-trione]
< 1 | Cc1noc(C)c1CCN1CCc2cc(O)c(N3CC(=O)NS3(=O)=O)c(F)c2C1 [Compound 211, 5-{2-[2-(3,5-dimethyl-1,2-oxazol-4-yl)ethyl]-8-fluoro-6-hydroxy-1,2,3,4-tetrahydroisoquinolin-7-yl}-1λ^6,2,5-thiadiazolidine-1,1,3-trione]
1 to 10 | CCn1nc(C)c(CCN2CCc3cc(O)c(N4CC(=O)NS4(=O)=O)c(F)c3C2)c1C [Compound 276, 5-{2-[2-(1-ethyl-3,5-dimethyl-1H-pyrazol-4-yl)ethyl]-8-fluoro-6-hydroxy-1,2,3,4-tetrahydroisoquinolin-7-yl}-1λ^6,2,5-thiadiazolidine-1,1,3-trione]
1 to 10 | CC(C)(C)OC(=O)N1CCc2cc(O)c(N3CC(=O)NS3(=O)=O)c(F)c2C1 [Compound 221, tert-butyl 8-fluoro-6-hydroxy-7-(1,1,4-trioxo-1λ^6,2,5-thiadiazolidin-2-yl)-3,4-dihydroisoquinoline-2(1H)-carboxylate]
10 to 100 | O=C1CN(c2c(O)cc3c(c2F)CN(CCCCCC(F)(F)F)CC3)S(=O)(=O)N1 [Compound 161, 5-[8-fluoro-6-hydroxy-2-(6,6,6-trifluorohexyl)-1,2,3,4-tetrahydroisoquinolin-7-yl]-1λ^6,2,5-thiadiazolidine-1,1,3-trione]
1 to 10 | Cc1n[nH]c(C)c1CCN1CCc2cc(O)c(N3CC(=O)NS3(=O)=O)c(F)c2C1 [Compound 194, 5-{2-[2-(3,5-dimethyl-1H-pyrazol-4-yl)ethyl]-8-fluoro-6-hydroxy-1,2,3,4-tetrahydroisoquinolin-7-yl}-1λ^6,2,5-thiadiazolidine-1,1,3-trione]
1 to 10 | COCCCN1CCc2cc(O)c(N3CC(=O)NS3(=O)=O)c(F)c2C1 [Compound 217, 5-[8-fluoro-6-hydroxy-2-(3-methoxypropyl)-1,2,3,4-tetrahydroisoquinolin-7-yl]-1λ^6,2,5-thiadiazolidine-1,1,3-trione]
1 to 10 | O=C1CN(c2c(O)cc3c(c2F)CN(CCC2CCOCC2)CC3)S(=O)(=O)N1 [Compound 214, 5-{8-fluoro-6-hydroxy-2-[2-(oxan-4-yl)ethyl]-1,2,3,4-tetrahydroisoquinolin-7-yl}-1λ^6,2,5-thiadiazolidine-1,1,3-trione]
1 to 10 | O=C1CN(c2c(O)cc3c(c2F)CN(CCC2CCCCC2)CC3)S(=O)(=O)N1 [Compound 179, 5-[2-(2-cyclohexylethyl)-8-fluoro-6-hydroxy-1,2,3,4-tetrahydroisoquinolin-7-yl]-1λ^6,2,5-thiadiazolidine-1,1,3-trione]
1 to 10 | CC(C)CCCN1CCc2cc(O)c(N3CC(=O)NS3(=O)=O)c(F)c2C1 [Compound 145, 5-[8-fluoro-6-hydroxy-2-(4-methylpentyl)-1,2,3,4-tetrahydroisoquinolin-7-yl]-1λ^6,2,5-thiadiazolidine-1,1,3-trione]
1 to 10 | CC(C)CCNC(=O)N1CCc2cc(O)c(N3CC(=O)NS3(=O)=O)c(F)c2C1 [Compound 205, 8-fluoro-6-hydroxy-N-(3-methylbutyl)-7-(1,1,4-trioxo-1λ^6,2,5-thiadiazolidin-2-yl)-3,4-dihydroisoquinoline-2(1H)-carboxamide]
1 to 10 | Cc1nn(CC(F)F)c(C)c1CCN1CCc2cc(O)c(N3CC(=O)NS3(=O)=O)c(F)c2C1 [Compound 253, 5-(2-{2-[1-(2,2-difluoroethyl)-3,5-dimethyl-1H-pyrazol-4-yl]ethyl}-8-fluoro-6-hydroxy-1,2,3,4-tetrahydroisoquinolin-7-yl)-1λ^6,2,5-thiadiazolidine-1,1,3-trione]
1 to 10 | O=C1CN(c2c(O)cc3c(c2F)CN(CCCC2CCCCC2)CC3)S(=O)(=O)N1 [Compound 286, 5-[2-(3-cyclohexylpropyl)-8-fluoro-6-hydroxy-1,2,3,4-tetrahydroisoquinolin-7-yl]-1λ^6,2,5-thiadiazolidine-1,1,3-trione]
1 to 10 | COCCCCN1CCc2cc(O)c(N3CC(=O)NS3(=O)=O)c(F)c2C1 [Compound 293, 5-[8-fluoro-6-hydroxy-2-(4-methoxybutyl)-1,2,3,4-tetrahydroisoquinolin-7-yl]-1λ^6,2,5-thiadiazolidine-1,1,3-trione]
1 to 10 | O=C1CN(c2c(O)cc3c(c2F)CN(CCCC2CCOCC2)CC3)S(=O)(=O)N1 [Compound 196, 5-{8-fluoro-6-hydroxy-2-[3-(oxan-4-yl)propyl]-1,2,3,4-tetrahydroisoquinolin-7-yl}-1λ^6,2,5-thiadiazolidine-1,1,3-trione]
10 to 100 | NCCCN1CCc2cc(O)c(N3CC(=O)NS3(=O)=O)c(F)c2C1 [Compound 218, 5-[2-(3-aminopropyl)-8-fluoro-6-hydroxy-1,2,3,4-tetrahydroisoquinolin-7-yl]-1λ^6,2,5-thiadiazolidine-1,1,3-trione]
1 to 10 | O=C1CN(c2c(O)cc3c(c2F)CN(C(=O)NCC2CC2)CC3)S(=O)(=O)N1 [Compound 258, N-(cyclopropylmethyl)-8-fluoro-6-hydroxy-7-(1,1,4-trioxo-1λ^6,2,5-thiadiazolidin-2-yl)-3,4-dihydroisoquinoline-2(1H)-carboxamide]
1 to 10 | CC(C)CNC(=O)N1CCc2cc(O)c(N3CC(=O)NS3(=O)=O)c(F)c2C1 [Compound 206, 8-fluoro-6-hydroxy-N-(2-methylpropyl)-7-(1,1,4-trioxo-1λ^6,2,5-thiadiazolidin-2-yl)-3,4-dihydroisoquinoline-2(1H)-carboxamide]
1 to 10 | Cc1nn(C(F)F)c(C)c1CCN1CCc2cc(O)c(N3CC(=O)NS3(=O)=O)c(F)c2C1 [Compound 238, 5-(2-{2-[1-(difluoromethyl)-3,5-dimethyl-1H-pyrazol-4-yl]ethyl}-8-fluoro-6-hydroxy-1,2,3,4-tetrahydroisoquinolin-7-yl)-1λ^6,2,5-thiadiazolidine-1,1,3-trione]
1 to 10 | Cc1nn(C)c(C)c1CCN1CCc2cc(O)c(N3CC(=O)NS3(=O)=O)c(F)c2C1 [Compound 209, 5-{8-fluoro-6-hydroxy-2-[2-(1,3,5-trimethyl-1H-pyrazol-4-yl)ethyl]-1,2,3,4-tetrahydroisoquinolin-7-yl}-1λ^6,2,5-thiadiazolidine-1,1,3-trione]
> 100 | Cc1noc(C)c1CCN1Cc2c(cc(O)c(N3CC(=O)NS3(=O)=O)c2F)C(F)(F)C1 [Compound 306, 5-{2-[2-(3,5-dimethyl-1,2-oxazol-4-yl)ethyl]-4,4,8-trifluoro-6-hydroxy-1,2,3,4-tetrahydroisoquinolin-7-yl}-1λ^6,2,5-thiadiazolidine-1,1,3-trione]
10 to 100 | CC1(C)CCc2c(cc(O)c(N3CC(=O)NS3(=O)=O)c2F)O1 [Compound 112, 5-(5-fluoro-7-hydroxy-2,2-dimethyl-3,4-dihydro-2H-1-benzopyran-6-yl)-1λ^6,2,5-thiadiazolidine-1,1,3-trione]

Compound | IC50 [µM]
O=C1CN(c2c(O)cc3c(c2F)CNCC3)S(=O)(=O)N1 [Compound 143, 5-(8-fluoro-6-hydroxy-1,2,3,4-tetrahydroisoquinolin-7-yl)-1λ^6,2,5-thiadiazolidine-1,1,3-trione] | 1 to 10

Same assay, conditions: B16-F10, with 0.5 ng/mL IFNγ, read-out: B16F10 Growth Inhibition IC50

IC50 [µM] | Compound
4.1 | O=C1CN(c2c(O)cc3ccc(NCCC4CC4)cc3c2F)S(=O)(=O)N1 [Compound X]
3.2 | CC(C)CCNc1ccc2cc(O)c(N3CC(=O)NS3(=O)=O)c(F)c2c1 [Compound V]
